According to ChEMBL document CHEMBL3507680, “University of Dundee, Gates Library screen for HepG2 cell viability”:

Experiment: Human HepG2 cell viability assay in 384 well format
Type: toxicity, cell-based
Set-up: dose 125 nL, time 70.5 hour; concentration not given beside the values
Conditions: HepG2 cells, read-out: Inhibition

Row | SMILES | cytotoxicity at 70.5 h [%]
1 | COc1ccc(-c2noc(CN3CCc4cncnc4C3)n2)cc1 | -8.79
2 | O=C(c1cccnc1N1CCOCC1)N1CCCC(n2ccnc2)C1 (centres undefined) | -6.03
3 | Cc1oc(C)c(C(=O)NCc2ccccn2)c1C | -6.3
4 | CCC1CN(CC(=O)Nc2sccc2C#N)CCO1 (centres undefined) | -8.24
5 | N#Cc1cn(C2CC2)c(=O)n(CC(O)c2ccccc2F)c1=O (centres undefined) | -17
6 | COc1ccc(C(O)CNC(=O)Nc2cc(C)nn2C)cc1 (centres undefined) | 25.3
7 | Cc1oc(C)c(C(=O)NCc2ccccc2S(=O)(=O)N(C)C)c1C | -2.12
8 | Cc1cc(C)n(CC(=O)N2CCC(NS(=O)(=O)c3ccccc3)CC2)n1 | -5.45
9 | Cc1cc(C)c(CNC(=O)C2CCCN(c3cnccn3)C2)c(=O)[nH]1 (centres undefined) | -14.3
10 | COc1cc(CNCCc2cnn(C)c2)cc2c1OCCO2 | -12.1
11 | Cc1noc2ncc(C(=O)NCC3CCN(C(C)C)C3)cc12 (centres undefined) | -4.09
12 | Cc1nc2cc(=O)[nH]n2c(C)c1CC(=O)Nc1ccc2ccccc2n1 | -6.2
13 | Cc1cnn(CC2CN(CC(=O)Nc3sccc3C#N)CCO2)c1 (centres undefined) | -0.129
14 | Cn1cnnc1CNC(=O)Nc1cc(C(F)(F)F)c[nH]c1=O | -7.22
15 | Cc1ccccc1CNC(=O)Cc1c(C)nc2cc(=O)[nH]n2c1C | -2.94
16 | Cc1nc(C)n(CC2CCCN(CC(=O)Nc3nncs3)C2)n1 (centres undefined) | -6.97
17 | Cc1ccc(NC2CCN(C(=O)c3c(C)noc3C)CC2)nn1 | -2.81
18 | O=C(COc1ccc(C(F)(F)F)cc1)NS(=O)(=O)c1cccnc1 | -3.77
19 | Cc1nnc2n1CCN(C(=O)c1cc(Cl)c[nH]1)C2 | -6.67
20 | CCCC1CCCN(Cc2csc(-c3cnn(C)c3)n2)CC1 (centres undefined) | 14.1

Row | SMILES | cytotoxicity at 70.5 h [%]
21 | Cn1cc(-c2nc(CN3CCN(CCO)CC3)cs2)cn1 | 12.2
22 | CCC1CN(c2nnc(C)c(C)c2C#N)CCO1 (centres undefined) | 8.71
23 | O=C(Cn1nc(-c2ccc(F)cc2)oc1=O)NCc1ccc(F)cc1 | 30.8
24 | N#Cc1ccc(C(=O)NCCCNc2ccc(C(F)(F)F)cn2)cc1 | 0.522
25 | CCn1cc(NC(=O)NCC(c2cccs2)N(C)C)cn1 (centres undefined) | -4.7
26 | COCCOc1ncccc1C(=O)Nc1ccc(-n2cncn2)c(F)c1 | -6.17
27 | CCCNC(=O)CCC(=O)Nc1ccc(-n2cncn2)c(F)c1 | 36
28 | O=C(Cn1cnc(NC(=O)CC2CCCC2)n1)NCc1ccccc1 | 1.33
29 | COCCNC(=O)Nc1ccc(-n2cncn2)c(F)c1 | 40.1
30 | CCNC(=O)Nc1ccc2c(ccn2CC(=O)N(CC)CC)c1 | -0.739
31 | O=C(CCCc1nc2ccccc2[nH]1)N1CCCC(n2cccn2)C1 (centres undefined) | -1.12
32 | CN1CCCC1CNC(=O)CCCOCc1ccccc1 (centres undefined) | -3.14
33 | Cc1cc(CN2CCN(C(=O)NC(C)Cn3ccnc3)CC2)no1 (centres undefined) | -3.28
34 | Cc1nnc(N2CCOC(Cn3cccn3)C2)c(C#N)c1C (centres undefined) | -8.57
35 | CC(C)c1nnc2n1CCN(C(=O)CN1CCc3sccc3C1)C2 | -4.56
36 | c1cnnc(N2CCCC2CNCc2cc[nH]n2)c1 (centres undefined) | 11
37 | COCC(c1cccc(C(F)(F)F)c1)N(C)C(=O)c1cc(C)n[nH]1 (centres undefined) | 18.4
38 | C=C1c2ccccc2C(=O)N1CCC(=O)N1CCNC(=O)C1 | 3.89
39 | CCOCC(O)CN1CCN(C(=O)Cc2ccc(C)nc2)CC1 (centres undefined) | -0.471
40 | COCC(c1cccc(C(F)(F)F)c1)N(C)C(=O)c1ccncc1 (centres undefined) | 30.8

Row | SMILES | cytotoxicity at 70.5 h [%]
41 | Cc1noc(CCCC(=O)NC(C)c2cccnc2)n1 (centres undefined) | 0.606
42 | CC(C)OCC(=O)N1CCCN(Cc2ccc(C#N)cc2)CC1 | 5.66
43 | COCC(=O)NC(C)Cc1cccc(OC)c1 (centres undefined) | 0.122
44 | COc1c(CNC(c2ccc(F)cc2)C(C)(C)C)c(C)nn1C (centres undefined) | 3.66
45 | CC(C)(C)n1cc(C(=O)N2CCCN(Cc3cccs3)CC2)cn1 | -2.48
46 | CCN(Cc1ccc2c(c1)OCO2)C(=O)CCc1c(C)nc(C)[nH]c1=O | -4.97
47 | Cc1nc2ccccc2c(=O)n1CCC(=O)N1CCNC(=O)C1 | -2.46
48 | Cc1nc(-c2ccsc2)ccc1C(=O)NCCN1CCOCC1 | 0.983
49 | COC(=O)c1cc(C(=O)N2CCCCCC2)n(-c2ccccc2)n1 | 11.6
50 | O=C(Nc1cnn(CCN2CCOCC2)c1)c1ccccn1 | -4.34
51 | COC(=O)c1cc(C(=O)N2CCOCC2(C)C)n(-c2ccccc2)n1 | -0.593
52 | Cc1nc(-c2ccsc2)ccc1C(=O)NCCC(=O)N1CCCC1 | -3.29
53 | CCNc1cc2c(nn1)CCN(C(=O)c1ccc(NC3CC3)nc1)C2 | 1.85
54 | CCNc1cc2c(nn1)CCN(C(=O)c1ccnc(N(C)C)c1)C2 | 0.651
55 | Cc1ccc(CC(=O)N2CCN(CC(O)c3ccccc3)CC2)cn1 (centres undefined) | 1.06
56 | CNc1nc(CNC(=O)Nc2ccccc2SC)cs1 | 3.31
57 | Cc1ccc(SCC(=O)NS(=O)(=O)c2ccc3c(c2)OCCO3)cc1 | -1.91
58 | Cc1cnn(CCNCc2csc(-c3ccc(F)cc3)n2)c1 | 3.66
59 | COc1cc(CNCCc2nc(C)cs2)cc2c1OCCO2 | -0.752
